Assays:
[1] = system: p-p38, p-MK2, and p-Hsp27; assay: Immunoblot of SN38-induced p-p38, p-MK2, p-Hsp27 and apoptosis with upstream kinase inhibitors; type: cell-based, human; conditions: inhibitor in combination with SN38
Description: FIG. 3A contains immunoblot images showing p-p38, p-MK2, and p-Hsp27 activation in MIA paca-2 and Pa01c cells treated with SN38 10 μM for 16 hours alone or with IRAK4 inhibitor 4 μM, HCQ 20 μM, ATM inhibitor 20 μM, ATR inhibitor 20 μM, or TAK1 inhibitor 2 μM.
FIG. 3B contains immunoblot images of MIA paca-2 and Pa01c cells treated with SN38 10 μM alone for 16 hours or in combination with TAK1 inhibitor 2 μM for 16 hours.
To investigated the mechanism by which DNA damage activates MK2 and Hsp27, PDAC cells were treated with SN38 alone or in combination with inhibitors of IRAK4 (PF06650833), TLR9 (hydroxychloroquine, or HCQ), ATM (KU55933), ATR (VE821), and TAK1 (5z-7-oxozeanol).

[2] = system: TNFα mRNA expression; assay: qPCR of cytokine expression after SN38, Pa01c; type: cell-based, human; conditions: for SN38-induced induction of TNFα: inhibitor 2 μM before SN38
Description: (§1) FIG. 3D contains graphs summarizing the results of qPCR for TNFα, TNFβ, TGFβ, IL-1α, and IL-1β in Mia paca-2 (right) and Pa01c (left) cells treated with control or SN38 10 μM for 16 hours. P values from two-away ANOVA with Dunnett's multiple comparison test and error bars are mean+SEM. ***P<0.0002, ****P<0.0001.
FIG. 3F is a graph summarizing the results of qPCR showing TNFα expression in Pa01c cells following treatment with SN38 10 μM alone for 16 hours, or in combination with TAKli 2 μM or IKKi 2 μM for 24 hours prior to treatment with SN38 10 μM for 16 hours. P values from two-away ANOVA with Dunnett's multiple comparison test and error bars are mean+SEM. *P<0.0247, **P<0.0025.
(§2) RNAzol RT (Sigma) was used to isolate total RNA. cDNA was made with High Capacity cDNA reverse transcription kit (Thermo Fisher Scientific, 4368814). qPCR was performed with SYBR-Green reagent (Applied Biosciences). All experiments were performed in biological duplicates or triplicates (n=2, 3).
(§3) Because TAK1 is known to be a downstream kinase of TNF, TGFβ, and IL-1 receptors, a candidate approach was used to survey expression of TNFα/β, TGFβ, and IL-1α/β.

[3] = system: p-Hsp27; assay: Immunoblot of p-Hsp27 with MK2 inhibitors (SN38 or UV); type: cell-based, human; conditions: at baseline and following SN38 treatment
Description: FIG. 2E contains immunoblot images showing PARP cleavage of MIA paca-2 and Pa01c cells treated as in FIG. 1D.
FIG. 2H contains immunoblot images of p-p38, p-MK2, and p-Hsp27 from MIA paca-2 and Pa01c cells treated with 40 J/m2 of ultraviolet light (UV) alone or with MK2 inhibitor PF-3644022.
FIG. 2I contains immunoblot images of p-MK2 and p-Hsp27 from Pa01c cells treated with 40 J/m2 UV light, alone or with MK2 inhibitor ATI-450.
Western blotting was performed according to standard procedures. Cells grown in culture were washed twice in ice-cold 1×PBS and lysed in ice-cold RIPA buffer ([…]) containing 1× protease inhibitor (Sigma), NaVO3, Na pyrophosphate, and NaF. Protein lysates were quantified by Bradford assay and suspended in 6×SDS sample buffer, followed by boiling for 5 min at 95 C. 40 ug of protein lysate was resolved on SDS-PAGE and blotted on nitrocellulose membrane. Antibodies used included p38 MAPK (CST 8690S), p38 MAPK T180/Y182 (CST 9215S), MK2 total (CST 12155S), MK2 T334 (CST 3041S), MK2 T222 (3316S), Hsp27 total (CST 2042S), Hsp27 phos S82 (9709S), ? H2Ax (CST 9718S), JNK T183/Y185 (CST 4668), GSK3 beta phos S9 (CST 5558), ATR phos T1989 (CST 58014), ATM phos 51981 (CST 4526), AMPKα1 phos T172 (CST 2335T), and GAPDH (sc-47724). […]

[4] = system: MIA paca-2 cells; assay: FACS Annexin V and PI staining, MK2 inhibitor with or without SN38; type: cell-based, human; conditions: for apoptosis: MK2 inhibitor combined with SN38
Description: P values from one-way ANOVA with Dunnett's multiple comparison test and error bars are mean+SEM. **P<0.0021, ****P<0.0001.

[5] = system: KPPC mice; assay: KPPC mice, ATI-450 chow for two weeks, histologic analysis of pancreata; type: in vivo
Description: (§4) Tumors were formalin-fixed, paraffin-embedded, sectioned, and stained with hematoxylin and eosin (H&E). Immunohistochemistry (IHC) staining was performed using the following antibodies: p-Hsp27 S82 (CST cat #9709S), p-MK2 T334 (CST cat #3041S), p-p38 T180/Y182 (CST cat #9215S). Ten 200× or 400× power fields were analyzed per tumor independently by two individuals, and data were presented as mean+SEM of collated data. IHC sections were interpreted independently by two individual reviewers and representative data agreeable to all members were presented.
(§5) KPPC (p48-Cre/p53Flox/Flox LSL-KRASG12D) mice were created as described in previous publications. Treatment began six weeks after birth when tumors spontaneously form in vivo. FOLFIFINOX treatment was given by weekly intraperitoneal (I.P.) injection of 5-FU 25 mg/kg, irinotecan 17.5 mg/kg, and oxaliplatin 3.3 mg/kg. ATI-450 treatment was given as drug-impregnated chow, ad libitum, starting six weeks after birth; when given in combination with chemotherapy, ATI-450 chow was begun the day prior to initiation of chemotherapy.
To complement the human xenograft models, which lacked the desmoplastic tumor microenvironment and intact immune system essential for PDAC development, an autochthonous KPPC (p48-Cre; p53flox/flox; LSL-KRASG12D) mouse model was treated and observed. KPPC mice were treated with vehicle or ATI-450 ad libitum in chow starting from 6 weeks-old of age when foci of invasive PDAC start to appear. After two weeks of treatment, all mice were euthanized and their pancreata were subjected to histologic analysis.

[6] = patients with rheumatoid arthritis; cited from earlier work
[7] = system: KPPC mice; assay: Autochthonous KPPC model, survival and tumor analysis; type: in vivo
Description: as §4, §5
All mice were treated beginning at 6 weeks of age until humane endpoints were reached.

[8] = system: autophagy markers; assay: Autophagy markers (western blot, LC3 reporter) after SN38 with or without MK2 inhibitors; type: cell-based, human; conditions: for SN38-induced p-Beclin1 and LC3-II: MK2 inhibitor with SN38
[9] = system: non-pancreatic cancer cell lines (colon, gastric, breast); assay: Apoptosis of non-pancreatic cancer cell lines with SN38 and ATI-450; type: cell-based; conditions: combination SN38 and ATI-450
[10] = system: PDAC lines; assay: Recombinant TNFα treatment of PDAC lines: p-Hsp27, PARP cleavage, Annexin V; type: cell-based, human; conditions: for TNFα-induced p-Hsp27 / apoptosis: inhibitor plus TNFα
[11] = system: PDAC cells; assay: Apoptosis after SN38 with autophagy inhibition (HCQ, Beclin-1 ablation); type: cell-based, human
Description: FIG. 4D contains immunoblot images of MIA paca-2 and Pa01c cells following treatment with SN38, HCQ, or the combination. P values from two-way ANOVA with Sidak's multiple comparison test and error bars are mean+SEM. ***P=0.0009, *P=0.035.
FIG. 4F contains immunoblot images of MIA paca-2 control cells or Beclin 1 (BECN1) knockout treated with SN38, ATI-450, or the combination.
FIG. 4G contains scatter plots (left) and a graph summarizing quantification of a FACS analysis of MIA paca-2 control cells or Beclin 1 knockout cells treated with control (DMSO) or SN38 10 μM for 24 hours; graphic quantification of annexin V positive cells on the right.

[12] = system: p-Hsp27; assay: Immunoblot of p-MK2 and p-Hsp27 after individual chemotherapy agents; type: cell-based, human; conditions: for induction of p-MK2 and p-Hsp27: PDAC lines tested
Description: Western blotting was performed according to standard procedures. Cells grown in culture were washed twice in ice-cold 1×PBS and lysed in ice-cold RIPA buffer (10 nM Tris pH 7.4, 50 nM NaCl, 0.05% SDS, 0.05% Triton X-100, 0.5% sodium deoxycholate, and 10 nM EDTA) containing 1× protease inhibitor (Sigma), NaVO3, Na pyrophosphate, and NaF. Protein lysates were quantified by Bradford assay and suspended in 6×SDS sample buffer, followed by boiling for 5 min at 95 C. 40 ug of protein lysate was resolved on SDS-PAGE and blotted on nitrocellulose membrane. Antibodies used included p38 MAPK (CST 8690S), p38 MAPK T180/Y182 (CST 9215S), MK2 total (CST 12155S), MK2 T334 (CST 3041S), MK2 T222 (3316S), Hsp27 total (CST 2042S), Hsp27 phos S82 (9709S), ? H2Ax (CST 9718S), JNK T183/Y185 (CST 4668), GSK3 beta phos S9 (CST 5558), ATR phos T1989 (CST 58014), ATM phos 51981 (CST 4526), AMPKα1 phos T172 (CST 2335T), and GAPDH (sc-47724). Blots were imaged using chemiluminescent substrate (Thermo Scientific).

[13] = system: TNFα mRNA expression; assay: qPCR of cytokine expression after SN38, MIA Paca-2; type: cell-based, human; conditions: MIA Paca-2 cells, SN38 10 μM for 16 hours
Description: as §1, §2, §3

[14] = system: TNFα protein; assay: TNFα ELISA of Pa01c supernatant; type: cell-based, human; conditions: Pa01c cells, SN38 10 μM for 16 hours
Description: FIG. 3E is a graph summarizing TNFα ELISA of Pa01c cells treated with control or SN38 10 μM for 16 hours overnight. P values from one-way ANOVA with Dunnett's multiple comparison test and error bars are mean+SEM. *P<0.0332.
as §3

**Q.** Which results are given for COc1cc(O)c2c(c1)/C=C/C[C@H](O)[C@H](O)C(=O)/C=C\C[C@H](C)OC2=O [5z-7-oxozeanol, (5Z)-7-Oxozeaenol]?
**A.** SN38-induced p-p38, p-MK2, and p-Hsp27 [1]: completely blocked; apoptotic effect of SN38 [1]: potentiated; SN38-induced induction of TNFα ([2]; Pa01c cells): abrogated

**Q.** For Cc1cnc(-c2ccnc(C(C)(C)O)n2)cc1-n1c(C)cc(OCc2ncc(F)cc2F)c(Cl)c1=O [ATI-450], which p-Hsp27 [3] is on record?
**A.** replicated

**Q.** And the apoptosis [4]?
**A.** replicated

**Q.** And the “PDAC burden of pancreata” value ([5]; ATI-450 in chow from 6 weeks of age, two weeks)?
**A.** significantly lower PDAC burdens

**Q.** What about the “fractions of normal or early PanIN lesions” value ([5]; ATI-450 in chow, two weeks) of the same compound?
**A.** relatively higher fractions

**Q.** And the “tumor fibrosis by Sirius Red staining” value ([5]; ATI-450 in chow, two weeks)?
**A.** significantly less fibrotic

**Q.** What about the “progression of PDAC” value ([5]; single agent) of the same compound?
**A.** significantly delayed

**Q.** What about the tolerability [6] of the same compound?
**A.** well-tolerated

**Q.** What about the PDAC lesions ([7]; addition of ATI-450 to FOLFIRINOX) of the same compound?
**A.** almost completely ablated

**Q.** And the “tumor histology (H&E)” value ([7]; mouse, in vivo)?
**A.** smaller but retained a significant fraction of overt PDAC

**Q.** And the survival ([7]; treated from 6 weeks of age until humane endpoints)?
**A.** improved survival significantly greater than vehicle

**Q.** What about the “p-Hsp27 (IHC), in vivo on-target effect” value ([7]; tumor sections) of the same compound?
**A.** completely suppressed

**Q.** And the “SN38-induced p-Beclin1 and LC3-II” value [8]?
**A.** robustly suppress

**Q.** What about the apoptosis [9] of the same compound?
**A.** sensitized the cells to apoptosis

**Q.** What about the “TNFα-induced p-Hsp27” value [10] of the same compound?
**A.** abrogated

**Q.** What about the apoptosis [10] of the same compound?
**A.** augmented apoptosis

**Q.** What about the apoptosis ([11]; Beclin-1-ablated cells, added to SN38) of the same compound?
**A.** only marginally increased apoptosis

**Q.** For Nc1ccn([C@@H]2O[C@H](CO)[C@@H](O)C2(F)F)c(=O)n1 [Gemcitabine], which “induction of p-MK2 and p-Hsp27” value [12] is on record?
**A.** much lower degree

**Q.** With O=C(Nc1cc(C(F)(F)F)cc(C(F)(F)F)c1)c1cc(Cl)ccc1O [IMD0354] as the compound, how does the “SN38-induced induction of TNFα” value ([2]; Pa01c cells) read?
**A.** abrogated

**Q.** What does the source list for Cc1ccc(-c2ccc3c(ccc4sc5c(c43)NC[C@@H](C)NC5=O)n2)cn1 [PF-3644022]?
**A.** p-Hsp27 [3]: abolished; toxicity to PDAC cells ([4]; MK2 inhibitor alone): not toxic; apoptosis [4]: significantly increased apoptosis; SN38-induced p-Beclin1 and LC3-II [8]: robustly suppress

**Q.** What does the source list for CC(C)(C)C(=O)N1N=CC[C@H]1c1ccccc1 [RIPK inhibitor]?
**A.** SN38-induced p-p38, p-MK2, and p-Hsp27 [1]: not blocked; TNFα-induced p-Hsp27 [10]: did not block p-Hsp27; apoptosis [10]: did not block p-Hsp27 or alter apoptosis

**Q.** Which results are given for CCc1c2c(nc3ccc(O)cc13)-c1cc3c(c(=O)n1C2)COC(=O)[C@]3(O)CC [SN38]?
**A.** TNFα mRNA expression [13]: ~30 fold; activation of p-Hsp27 ([12]; MIA Paca-2 cells, vehicle, 5-FU, SN38 or oxaliplatin individually): most strongly activates Hsp27; induction of p-MK2 and p-Hsp27 [12]: potently induced; TNFα protein in supernatant [14]: increased TNFα protein; LC3-GFP reporter expression ([8]; PDAC cells): significantly decreased; autophagy markers: p-ULK1 (S555), p-AMPKα (T172), p-Beclin1 (S90), p62 ([8]; western blots): markedly induced; TNFβ expression ([2]; Pa01c cells following SN38): elevated; TNFα mRNA expression ([2]; Pa01c cells, SN38 10 μM for 16 hours): ~30 fold

**Q.** For CCN(CCO)CCCC(C)Nc1ccnc2cc(Cl)ccc12 (stereo not drawn) [hydroxychloroquine], which apoptosis ([11]; PDAC cells treated with SN38 and HCQ) is on record?
**A.** significantly higher levels of apoptosis

**Q.** For TNFα, which “apoptosis (PARP cleavage and Annexin V staining)” value ([10]; recombinant TNFα alone) is on record?
**A.** induced apoptosis

**Q.** And the p-Hsp27 ([10]; recombinant TNFα alone)?
**A.** upregulated

— US20230087078A1, “COMPOSITIONS AND METHODS FOR THE TREATMENT OF PANCREATIC CANCER” (Washington University, priority 2020, published 2023)
